# Patent publication US10442807B2, “Aryl substituted bicyclic compounds as herbicides” (FMC Corporation, priority 2015, dated 2019)
# Legend:
# Assay type in all cases: in vivo
# [1] = test system: sedge, umbrella (small-flower umbrella sedge, Cyperus difformis); assay: Test B flooded paddy test, visual plant response rating; conditions: 250 g ai/ha; applied to paddy water at 2-leaf stage; rated after 13 to 15 days; scale 0 to 100, 0 is no effect, 100 is complete control
# Procedure, shortened: (§1)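 Water stood 3 cm above the soil when compounds were applied into it, and it was kept there for the whole test. After 13 to 15 days in the greenhouse, plants were compared with controls and rated visually from 0 (no effect) to 100 (complete control).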
# rice (Oryza sativa) = assay: as above; conditions: 250 g ai/ha; applied to paddy water at 2-leaf stage; rated after 13 to 15 days; scale 0 to 100, 0 is no effect, 100 is complete control
# Procedure, shortened: as §1
# [2] = test system: ducksalad (Heteranthera limosa); assay: as above; conditions: 250 g ai/ha; applied to paddy water at 2-leaf stage; rated after 13 to 15 days; scale 0 to 100, 0 is no effect, 100 is complete control
# Procedure, shortened: as §1
# [3] = test system: barnyardgrass (Echinochloa crus-galli); assay: as above; conditions: 250 g ai/ha; applied to paddy water at 2-leaf stage; rated after 13 to 15 days; scale 0 to 100, 0 is no effect, 100 is complete control
# Procedure, shortened: as §1
# corn (Zea mays) = assay: Test A postemergence application, visual injury rating; conditions: approx. 10 d, 0 = no effect, 100 = complete control
# Procedure, shortened: (§2)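 In a loam soil and sand blend, either planted seeds got a preemergence directed soil spray or plants at the one- to two-leaf stage (2 to 10 cm tall) were sprayed, using test chemicals in a non-phytotoxic solvent mixture with surfactant. After about 10 d in a greenhouse, injury was visually rated against untreated controls on a 0-100 scale.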
# [4] = test system: blackgrass (Alopecurus myosuroides); assay: as above; conditions: approx. 10 d, 0 = no effect, 100 = complete control
# Procedure, shortened: as §2
# [5] = test system: foxtail, giant (giant foxtail, Setaria faberii); assay: as above; conditions: approx. 10 d, 0 = no effect, 100 = complete control
# Procedure, shortened: as §2
# [6] = test system: pigweed (Amaranthus retroflexus); assay: as above; conditions: approx. 10 d, 0 = no effect, 100 = complete control
# Procedure, shortened: as §2
# kochia (Kochia scoparia) [7] = assay: as above; conditions: approx. 10 d, 0 = no effect, 100 = complete control
# Procedure, shortened: as §2
# [8] = test system: barnyardgrass (Echinochloa crus-galli); assay: as above; conditions: approx. 10 d, 0 = no effect, 100 = complete control
# Procedure, shortened: as §2
# [9] = test system: ragweed (common ragweed, Ambrosia elation); assay: as above; conditions: approx. 10 d, 0 = no effect, 100 = complete control
# Procedure, shortened: as §2
# [10] = test system: galium (catchweed bedstraw, Galium aparine); assay: as above; conditions: approx. 10 d, 0 = no effect, 100 = complete control
# Procedure, shortened: as §2
# [11] = test system: wheat (Triticum aestivum); assay: as above; conditions: approx. 10 d, 0 = no effect, 100 = complete control
# Procedure, shortened: as §2
# [12] = test system: ryegrass, Italian (Italian ryegrass, Lolium multiflorum); assay: as above; conditions: approx. 10 d, 0 = no effect, 100 = complete control
# Procedure, shortened: as §2
# [13] = test system: foxtail, giant (giant foxtail, Setaria faberii); assay: Test A preemergence, directed soil spray, visual injury rating; conditions: approx. 10 d, 0 = no effect, 100 = complete control
# Procedure, shortened: as §2
# [14] = test system: pigweed (Amaranthus retroflexus); assay: as above; conditions: approx. 10 d, 0 = no effect, 100 = complete control
# Procedure, shortened: as §2
# kochia (Kochia scoparia) [15] = assay: as above; conditions: approx. 10 d, 0 = no effect, 100 = complete control
# Procedure, shortened: as §2
# [16] = test system: barnyardgrass (Echinochloa crus-galli); assay: as above; conditions: approx. 10 d, 0 = no effect, 100 = complete control
# Procedure, shortened: as §2
# [17] = test system: ragweed (common ragweed, Ambrosia elation); assay: as above; conditions: approx. 10 d, 0 = no effect, 100 = complete control
# Procedure, shortened: as §2
# [18] = test system: ryegrass, Italian (Italian ryegrass, Lolium multiflorum); assay: as above; conditions: approx. 10 d, 0 = no effect, 100 = complete control
# Procedure, shortened: as §2
structure (smiles),measurement,setting,value
CCc1ccc(C2Cn3cnnc3C2C(=O)Nc2cccc(F)c2C)cc1 (stereo not drawn) [Compound 28],"Plant response rating, Flood, Sedge, Umbrella",[1],75
same,"Plant response rating, Flood, Rice",rice (Oryza sativa),20
same,"Plant response rating, Flood, Ducksalad",[2],90
same,"Plant response rating, Flood, Barnyardgrass",[3],40
same,Corn plant response rating (0 to 100 scale),corn (Zea mays); 125 g ai/ha,0
same,Corn plant response rating (0 to 100 scale),corn (Zea mays); 500 g ai/ha,0
same,Blackgrass plant response rating (0 to 100 scale),[4]; 125 g ai/ha,20
same,Blackgrass plant response rating (0 to 100 scale),[4]; 500 g ai/ha,40
same,"Foxtail, Giant plant response rating (0 to 100 scale)",[5]; 125 g ai/ha,40
same,"Foxtail, Giant plant response rating (0 to 100 scale)",[5]; 500 g ai/ha,60
same,Pigweed plant response rating (0 to 100 scale),[6]; 125 g ai/ha,0
same,Pigweed plant response rating (0 to 100 scale),[6]; 500 g ai/ha,0
same,Kochia plant response rating (0 to 100 scale),kochia (Kochia scoparia) [7]; 125 g ai/ha,20
same,Kochia plant response rating (0 to 100 scale),kochia (Kochia scoparia) [7]; 500 g ai/ha,50
same,Barnyardgrass plant response rating (0 to 100 scale),[8]; 125 g ai/ha,50
same,Barnyardgrass plant response rating (0 to 100 scale),[8]; 500 g ai/ha,80
same,Ragweed plant response rating (0 to 100 scale),[9]; 125 g ai/ha,0
same,Ragweed plant response rating (0 to 100 scale),[9]; 500 g ai/ha,0
same,Galium plant response rating (0 to 100 scale),[10]; 125 g ai/ha,20
same,Galium plant response rating (0 to 100 scale),[10]; 500 g ai/ha,30
same,Wheat plant response rating (0 to 100 scale),[11]; 125 g ai/ha,0
same,Wheat plant response rating (0 to 100 scale),[11]; 500 g ai/ha,0
same,"Ryegrass, Italian plant response rating (0 to 100 scale)",[12]; 125 g ai/ha,0
same,"Ryegrass, Italian plant response rating (0 to 100 scale)",[12]; 500 g ai/ha,50
same,"Foxtail, Giant plant response rating (0 to 100 scale)",[13]; 125 g ai/ha,70
same,"Foxtail, Giant plant response rating (0 to 100 scale)",[13]; 500 g ai/ha,90
same,Pigweed plant response rating (0 to 100 scale),[14]; 125 g ai/ha,0
same,Pigweed plant response rating (0 to 100 scale),[14]; 500 g ai/ha,0
same,Kochia plant response rating (0 to 100 scale),kochia (Kochia scoparia) [15]; 125 g ai/ha,60
same,Kochia plant response rating (0 to 100 scale),kochia (Kochia scoparia) [15]; 500 g ai/ha,60
same,Barnyardgrass plant response rating (0 to 100 scale),[16]; 125 g ai/ha,60
same,Barnyardgrass plant response rating (0 to 100 scale),[16]; 500 g ai/ha,90
same,Ragweed plant response rating (0 to 100 scale),[17]; 125 g ai/ha,0
same,Ragweed plant response rating (0 to 100 scale),[17]; 500 g ai/ha,30
same,"Ryegrass, Italian plant response rating (0 to 100 scale)",[18]; 125 g ai/ha,0
same,"Ryegrass, Italian plant response rating (0 to 100 scale)",[18]; 500 g ai/ha,30
